Data taken from publication PMC8444262, “α-Mangostin Induces Apoptosis and Inhibits Metastasis of Breast Cancer Cells via Regulating RXRα-AKT Signaling Pathway” (Frontiers in Pharmacology, 2021).

Molecular target: T1, RXRα (Homo sapiens, UniProt P19793)
T1 construct: gene RXRA; RXRα-LBD
T1 sequence (P19793 198-462): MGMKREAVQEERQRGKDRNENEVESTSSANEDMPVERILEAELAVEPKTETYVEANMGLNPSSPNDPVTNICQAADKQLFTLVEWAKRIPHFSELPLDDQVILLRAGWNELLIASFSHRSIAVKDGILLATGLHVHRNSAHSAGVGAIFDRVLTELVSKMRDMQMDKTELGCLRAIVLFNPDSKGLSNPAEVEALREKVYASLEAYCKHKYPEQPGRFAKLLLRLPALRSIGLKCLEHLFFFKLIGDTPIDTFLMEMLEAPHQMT
Experiment: SPR (Biacore S200, immobilized RXRα-LBD); supported by antagonism of 9-cis-RA in GAL4-RXRα-LBD reporter assay
Assay type: binding

## COc1c(O)cc2oc3cc(O)c(CC=C(C)C)c(O)c3c(=O)c2c1CC=C(C)C [compound 3, α-Mangostin]
  Kd: 39 µM
